In brackets after ≈: the same amount, converted by molar mass.
Assays:
Albumin = Albumin (Homo sapiens, UniProt P02768); test: Binding affinity to human serum albumin by HPLC analysis; type: ADME; conditions: isolated protein
[1] = target: Phosphatidylinositol 4,5-bisphosphate 3-kinase catalytic subunit alpha isoform (Homo sapiens, UniProt P42336)
Description: Inhibition of PI3Kalpha (unknown origin) using biotin-PIP3 as substrate preincubated for 15 mins followed by substrate addition and measured after 60 mins by fluorescence polarization assay

[2] = target: T1, Phosphatidylinositol 4,5-bisphosphate 3-kinase catalytic subunit delta isoform (Homo sapiens, UniProt O00329)
T1 sequence (O00329 whole entry): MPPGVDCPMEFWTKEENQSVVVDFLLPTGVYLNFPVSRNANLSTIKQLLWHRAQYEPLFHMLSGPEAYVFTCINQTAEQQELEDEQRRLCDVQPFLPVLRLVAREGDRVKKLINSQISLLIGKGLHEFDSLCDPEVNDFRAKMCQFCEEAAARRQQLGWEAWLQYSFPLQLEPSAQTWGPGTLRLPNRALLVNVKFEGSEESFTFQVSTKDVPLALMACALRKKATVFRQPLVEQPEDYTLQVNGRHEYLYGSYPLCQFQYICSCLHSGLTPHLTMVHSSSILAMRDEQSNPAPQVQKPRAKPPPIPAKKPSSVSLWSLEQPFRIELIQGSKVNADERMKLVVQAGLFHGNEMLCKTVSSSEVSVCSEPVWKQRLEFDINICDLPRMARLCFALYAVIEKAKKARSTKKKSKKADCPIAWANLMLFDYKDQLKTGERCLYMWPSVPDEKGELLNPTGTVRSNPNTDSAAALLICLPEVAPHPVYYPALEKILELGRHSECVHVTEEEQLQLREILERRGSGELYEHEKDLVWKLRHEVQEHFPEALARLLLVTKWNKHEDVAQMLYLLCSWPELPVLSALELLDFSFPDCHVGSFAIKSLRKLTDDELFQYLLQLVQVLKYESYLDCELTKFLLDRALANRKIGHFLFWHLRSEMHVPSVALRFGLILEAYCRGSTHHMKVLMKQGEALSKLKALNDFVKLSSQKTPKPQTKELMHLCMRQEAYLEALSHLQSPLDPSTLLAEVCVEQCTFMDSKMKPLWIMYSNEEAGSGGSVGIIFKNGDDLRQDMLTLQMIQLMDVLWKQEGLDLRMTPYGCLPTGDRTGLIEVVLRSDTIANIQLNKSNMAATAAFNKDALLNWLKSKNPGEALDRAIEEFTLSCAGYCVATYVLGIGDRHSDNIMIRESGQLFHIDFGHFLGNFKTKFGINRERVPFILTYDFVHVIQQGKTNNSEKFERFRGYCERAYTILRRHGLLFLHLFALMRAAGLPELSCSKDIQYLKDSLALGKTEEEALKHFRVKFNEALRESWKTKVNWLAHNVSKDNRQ
Description: Inhibition of PI3Kdelta (unknown origin) using biotin-PIP3 as substrate preincubated for 15 mins followed by substrate addition and measured after 60 mins by fluorescence polarization assay

[3] = target: Phosphatidylinositol 4,5-bisphosphate 3-kinase catalytic subunit beta isoform (Homo sapiens, UniProt P42338); test: Inhibition of PI3Kbeta (unknown origin) using biotin-PIP3 as substrate preincubated for 15 mins followed by substrate addition and measured after 60 mins by fluorescence polarization assay
[4] = Solubility of compound by CLND method; type: physicochemical
[5] = Lipophilicity, logD of compound at pH 7.4 by HPLC-MS analysis; conditions: buffer
[6] = target: Phosphatidylinositol 4,5-bisphosphate 3-kinase catalytic subunit gamma isoform (Homo sapiens, UniProt P48736)
Sequence of Phosphatidylinositol 4,5-bisphosphate 3-kinase catalytic subunit gamma isoform (P48736 whole entry, canonical isoform): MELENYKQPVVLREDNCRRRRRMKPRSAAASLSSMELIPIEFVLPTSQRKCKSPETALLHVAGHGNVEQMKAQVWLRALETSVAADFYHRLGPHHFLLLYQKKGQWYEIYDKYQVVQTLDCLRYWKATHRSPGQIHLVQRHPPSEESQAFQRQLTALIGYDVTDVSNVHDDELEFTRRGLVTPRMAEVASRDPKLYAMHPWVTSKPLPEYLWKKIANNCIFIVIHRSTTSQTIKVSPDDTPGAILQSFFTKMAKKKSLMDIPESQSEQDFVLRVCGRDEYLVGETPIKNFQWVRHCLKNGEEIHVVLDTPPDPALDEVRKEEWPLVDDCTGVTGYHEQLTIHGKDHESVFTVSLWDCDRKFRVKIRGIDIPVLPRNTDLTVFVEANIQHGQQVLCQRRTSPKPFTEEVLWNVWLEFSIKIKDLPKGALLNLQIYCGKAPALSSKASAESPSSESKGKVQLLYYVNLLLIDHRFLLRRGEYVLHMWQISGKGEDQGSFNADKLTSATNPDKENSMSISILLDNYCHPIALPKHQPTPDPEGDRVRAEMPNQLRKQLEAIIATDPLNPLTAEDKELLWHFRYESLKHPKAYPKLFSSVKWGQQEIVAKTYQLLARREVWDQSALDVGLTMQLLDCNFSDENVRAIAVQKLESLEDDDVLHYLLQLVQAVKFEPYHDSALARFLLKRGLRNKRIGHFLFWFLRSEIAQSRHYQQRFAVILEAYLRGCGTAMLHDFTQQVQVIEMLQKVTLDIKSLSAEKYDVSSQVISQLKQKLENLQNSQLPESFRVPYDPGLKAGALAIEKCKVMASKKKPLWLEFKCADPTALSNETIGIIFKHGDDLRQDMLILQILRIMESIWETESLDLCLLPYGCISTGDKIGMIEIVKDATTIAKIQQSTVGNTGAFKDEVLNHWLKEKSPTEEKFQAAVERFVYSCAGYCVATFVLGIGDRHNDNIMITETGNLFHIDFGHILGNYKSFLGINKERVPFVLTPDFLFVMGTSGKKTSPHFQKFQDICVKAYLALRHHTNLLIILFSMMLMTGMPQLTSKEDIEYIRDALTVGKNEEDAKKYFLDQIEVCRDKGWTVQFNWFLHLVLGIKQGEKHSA
Description: Inhibition of PI3Kgamma (unknown origin) using biotin-PIP3 as substrate preincubated for 15 mins followed by substrate addition and measured after 60 mins by fluorescence polarization assay

Sequence of Phosphatidylinositol 4,5-bisphosphate 3-kinase catalytic subunit alpha isoform (P42336 whole entry, canonical isoform): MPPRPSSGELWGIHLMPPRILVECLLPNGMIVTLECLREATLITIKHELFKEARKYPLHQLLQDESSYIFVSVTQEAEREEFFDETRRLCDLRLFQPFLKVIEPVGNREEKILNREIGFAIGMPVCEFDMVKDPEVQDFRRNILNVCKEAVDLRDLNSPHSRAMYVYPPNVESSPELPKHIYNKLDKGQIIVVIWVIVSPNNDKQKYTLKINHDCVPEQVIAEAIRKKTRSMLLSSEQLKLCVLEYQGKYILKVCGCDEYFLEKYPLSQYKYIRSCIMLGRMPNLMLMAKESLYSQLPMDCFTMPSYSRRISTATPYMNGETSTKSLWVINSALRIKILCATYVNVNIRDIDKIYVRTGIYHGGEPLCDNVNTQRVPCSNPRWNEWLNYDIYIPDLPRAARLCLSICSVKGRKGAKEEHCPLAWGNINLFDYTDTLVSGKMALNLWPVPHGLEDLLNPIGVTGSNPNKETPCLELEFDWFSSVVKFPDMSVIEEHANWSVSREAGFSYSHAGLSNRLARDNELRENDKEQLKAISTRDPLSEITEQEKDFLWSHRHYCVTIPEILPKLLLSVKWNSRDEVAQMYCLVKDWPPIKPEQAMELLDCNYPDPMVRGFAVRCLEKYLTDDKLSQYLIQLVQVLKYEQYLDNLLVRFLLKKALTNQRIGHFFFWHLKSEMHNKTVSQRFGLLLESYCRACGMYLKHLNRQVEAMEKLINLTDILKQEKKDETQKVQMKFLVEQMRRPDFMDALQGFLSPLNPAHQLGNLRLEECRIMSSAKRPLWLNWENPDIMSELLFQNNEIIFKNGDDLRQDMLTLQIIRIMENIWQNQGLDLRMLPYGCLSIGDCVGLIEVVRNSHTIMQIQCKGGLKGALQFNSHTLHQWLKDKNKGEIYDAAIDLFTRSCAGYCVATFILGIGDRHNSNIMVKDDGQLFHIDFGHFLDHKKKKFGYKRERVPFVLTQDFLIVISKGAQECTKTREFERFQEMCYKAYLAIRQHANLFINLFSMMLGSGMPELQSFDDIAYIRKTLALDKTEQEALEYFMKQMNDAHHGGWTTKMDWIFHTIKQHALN
Sequence of Phosphatidylinositol 4,5-bisphosphate 3-kinase catalytic subunit beta isoform (P42338 whole entry, canonical isoform): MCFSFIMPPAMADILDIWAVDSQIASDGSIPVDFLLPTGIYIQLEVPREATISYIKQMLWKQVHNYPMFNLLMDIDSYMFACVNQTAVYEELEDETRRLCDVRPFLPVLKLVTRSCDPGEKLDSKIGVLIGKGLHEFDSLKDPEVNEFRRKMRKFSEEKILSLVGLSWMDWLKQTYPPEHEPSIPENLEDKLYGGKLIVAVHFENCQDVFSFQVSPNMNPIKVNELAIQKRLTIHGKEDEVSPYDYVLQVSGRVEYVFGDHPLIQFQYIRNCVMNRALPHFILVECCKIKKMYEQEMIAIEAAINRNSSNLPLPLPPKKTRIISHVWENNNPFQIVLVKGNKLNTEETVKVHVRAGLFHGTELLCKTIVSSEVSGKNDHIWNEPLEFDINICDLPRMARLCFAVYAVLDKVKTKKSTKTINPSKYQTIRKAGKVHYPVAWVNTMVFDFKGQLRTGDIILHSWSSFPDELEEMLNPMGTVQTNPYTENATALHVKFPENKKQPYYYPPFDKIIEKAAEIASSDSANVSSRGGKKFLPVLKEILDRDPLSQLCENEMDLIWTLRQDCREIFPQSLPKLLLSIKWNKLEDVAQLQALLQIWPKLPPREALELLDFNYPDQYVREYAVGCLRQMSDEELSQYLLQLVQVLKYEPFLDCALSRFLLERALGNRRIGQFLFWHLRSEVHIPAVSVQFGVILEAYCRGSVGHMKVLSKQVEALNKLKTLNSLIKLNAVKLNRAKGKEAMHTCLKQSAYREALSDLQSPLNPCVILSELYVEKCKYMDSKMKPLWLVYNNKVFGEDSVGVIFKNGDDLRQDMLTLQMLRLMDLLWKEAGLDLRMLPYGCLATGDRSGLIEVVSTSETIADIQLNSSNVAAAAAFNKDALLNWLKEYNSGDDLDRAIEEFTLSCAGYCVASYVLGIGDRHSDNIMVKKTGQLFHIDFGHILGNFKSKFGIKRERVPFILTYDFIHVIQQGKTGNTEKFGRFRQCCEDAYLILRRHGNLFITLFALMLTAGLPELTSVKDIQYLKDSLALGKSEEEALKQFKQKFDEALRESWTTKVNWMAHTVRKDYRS
Sequence of Albumin (P02768 whole entry, canonical isoform): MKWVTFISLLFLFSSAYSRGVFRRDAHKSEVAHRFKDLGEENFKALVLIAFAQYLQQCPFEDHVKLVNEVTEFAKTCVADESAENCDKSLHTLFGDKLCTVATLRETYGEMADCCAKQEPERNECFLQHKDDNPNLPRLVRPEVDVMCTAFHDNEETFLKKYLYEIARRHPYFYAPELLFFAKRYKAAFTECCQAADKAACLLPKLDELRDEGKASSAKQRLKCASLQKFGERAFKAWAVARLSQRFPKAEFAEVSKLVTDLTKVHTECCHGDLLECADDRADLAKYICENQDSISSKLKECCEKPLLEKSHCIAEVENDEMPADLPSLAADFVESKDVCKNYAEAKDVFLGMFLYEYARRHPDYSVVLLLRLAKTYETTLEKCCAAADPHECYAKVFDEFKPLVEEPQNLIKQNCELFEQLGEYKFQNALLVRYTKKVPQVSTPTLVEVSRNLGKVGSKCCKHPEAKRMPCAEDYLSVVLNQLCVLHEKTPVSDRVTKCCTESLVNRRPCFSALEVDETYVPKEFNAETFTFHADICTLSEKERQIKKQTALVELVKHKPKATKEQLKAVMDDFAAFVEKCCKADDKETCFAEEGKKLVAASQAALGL

| Compound | Activity (Albumin) [%] | IC50 [1] [nM] | IC50 [2] [nM] | IC50 [3] [nM] | solubility kinetic [4] [µM] | logD [5] | IC50 [6] [nM] |
| --- | --- | --- | --- | --- | --- | --- | --- |
| CS(=O)(=O)NC1CCN(Cc2cc3nc(-c4cnc(N)nc4)nc(N4CCOCC4)c3s2)C1 (racemic) | 80.9 | 10 | 12.6 | 158 | ≥ 491 | 2.4 | 20 |
| CN(C1CCCN(Cc2cc3nc(-c4cccc5[nH]ncc45)nc(N4CCOCC4)c3s2)C1)S(C)(=O)=O (racemic) | – | 200 | 20 | 2510 | – | 4.9 | 794 |
| CC(=O)N[C@H]1CCN(Cc2cc3nc(-c4cnc(N)nc4)nc(N4CCOCC4)c3s2)C1 | – | 200 | 316 | 3980 | – | 1.8 | 251 |
| CN(C1CCN(Cc2cc3nc(-c4cnc(N)nc4)nc(N4CCOCC4)c3s2)CC1)S(C)(=O)=O | 87.8 | 15.8 | 7.94 | 251 | 118 (≈ 61.2 µg/mL) | 3.3 | 25.1 |
| CNC(=O)NC1CCCN(Cc2cc3nc(-c4cnc(N)nc4)nc(N4CCOCC4)c3s2)C1 (racemic) | – | 79.4 | 126 | 2000 | – | 2.6 | 158 |
| COCC(=O)NC1CCN(Cc2cc3nc(-c4cnc(N)nc4)nc(N4CCOCC4)c3s2)CC1 | – | 50.1 | 39.8 | 794 | – | 2.3 | 63.1 |
| COCC(=O)N(C)C1CCCN(Cc2cc3nc(-c4cccc5[nH]ncc45)nc(N4CCOCC4)c3s2)C1 (racemic) | – | 794 | 126 | 6310 | – | 4.3 | 3160 |
| CS(=O)(=O)NC1CCN(Cc2cc3nc(-c4cccc5[nH]ncc45)nc(N4CCOCC4)c3s2)CC1 | – | 126 | 39.8 | 1260 | – | 3.8 | 794 |
| CNC(=O)NC1CCN(Cc2cc3nc(-c4cnc(N)nc4)nc(N4CCOCC4)c3s2)CC1 | – | 25.1 | 39.8 | 631 | – | 1.9 | 63.1 |
| CS(=O)(=O)NC1CCN(Cc2cc3nc(-c4cnc(N)nc4)nc(N4CCOCC4)c3s2)CC1 | – | 31.6 | 25.1 | 398 | – | 2.4 | 63.1 |
| CC(=O)N(C)C1CCN(Cc2cc3nc(-c4cccc5[nH]ncc45)nc(N4CCOCC4)c3s2)C1 (racemic) | – | 200 | 20 | 1000 | – | 3.6 | 1000 |
| CC(=O)N(C)C1CCCN(Cc2cc3nc(-c4cnc(N)nc4)nc(N4CCOCC4)c3s2)C1 (racemic) | – | 63.1 | 15.8 | 2000 | – | 3.1 | 100 |
| CC(=O)N[C@@H]1CCN(Cc2cc3nc(-c4cnc(N)nc4)nc(N4CCOCC4)c3s2)C1 | – | 126 | 158 | 2000 | – | 1.8 | 126 |
| COCC(=O)N(C)C1CCN(Cc2cc3nc(-c4cnc(N)nc4)nc(N4CCOCC4)c3s2)C1 (racemic) | 81.2 | 15.8 | 6.31 | 251 | ≥ 2720 | 2.7 | 7.94 |
| CC(=O)N(C)[C@@H]1CCN(Cc2cc3nc(-c4cnc(N)nc4)nc(N4CCOCC4)c3s2)C1 | – | 31.6 | 7.94 | 398 | – | 2.5 | 25.1 |
| CN(C1CCN(Cc2cc3nc(-c4cnc(N)nc4)nc(N4CCOCC4)c3s2)C1)S(C)(=O)=O (racemic) | – | 7.94 | 6.31 | 251 | – | 3.1 | 12.6 |
| COCC(=O)N(C)C1CCN(Cc2cc3nc(-c4cccc5[nH]ncc45)nc(N4CCOCC4)c3s2)C1 (racemic) | – | 631 | 79.4 | 5010 | – | 3.8 | 1000 |

More lines, now with the values ahead:

| Activity (Albumin) [%] | IC50 [1] [nM] | IC50 [2] [nM] | IC50 [3] [nM] | solubility kinetic [4] [µM] | logD [5] | IC50 [6] [nM] | Compound |
| --- | --- | --- | --- | --- | --- | --- | --- |
| 95.6 | 794 | 6.31 | 1580 | – | 5.5 | 501 | CN(C1CCCN(Cc2cc3nc(-c4cccc5[nH]ccc45)nc(N4CCOCC4)c3s2)C1)S(C)(=O)=O (racemic) |
| 94.5 | 3160 | 12.6 | 2000 | – | 4.4 | – | CC(=O)N(C)C1CCN(Cc2cc3nc(-c4cccc5[nH]ccc45)nc(N4CCOCC4)c3s2)CC1 |
| – | 501 | 251 | 3980 | – | 3 | 1260 | CC(=O)NC1CCN(Cc2cc3nc(-c4cccc5[nH]ncc45)nc(N4CCOCC4)c3s2)C1 (racemic) |
| 94.4 | 794 | 6.31 | 501 | 251 (≈ 123 µg/mL) | 4.5 | 631 | CC(=O)N(C)C1CCN(Cc2cc3nc(-c4cccc5[nH]ccc45)nc(N4CCOCC4)c3s2)C1 (racemic) |
| – | 1580 | 100 | 1000 | – | 4.1 | 2510 | COCC(=O)NC1CCN(Cc2cc3nc(-c4cccc5[nH]ccc45)nc(N4CCOCC4)c3s2)C1 (racemic) |
| – | 251 | 39.8 | 2000 | – | 4.5 | 501 | CC(=O)N(C)C1CCCN(Cc2cc3nc(-c4cccc5[nH]ncc45)nc(N4CCOCC4)c3s2)C1 (racemic) |
| 94.3 | 10000 | 12.6 | 1000 | 238 (≈ 127 µg/mL) | 4.6 | – | COCC(=O)N(C)C1CCN(Cc2cc3nc(-c4cccc5[nH]ccc45)nc(N4CCOCC4)c3s2)CC1 |
| – | 2510 | 79.4 | 6310 | – | 5 | 2000 | COCC(=O)NC1CCCN(Cc2cc3nc(-c4cccc5[nH]ccc45)nc(N4CCOCC4)c3s2)C1 (racemic) |
| – | 126 | 79.4 | 2000 | – | 2.5 | 158 | CC(=O)NC1CCCN(Cc2cc3nc(-c4cnc(N)nc4)nc(N4CCOCC4)c3s2)C1 (racemic) |
| – | 3980 | 50.1 | 2510 | – | 4.5 | 2510 | CC(=O)NC1CCCN(Cc2cc3nc(-c4cccc5[nH]ccc45)nc(N4CCOCC4)c3s2)C1 (racemic) |
| – | 398 | 100 | 6310 | – | 4.5 | 2510 | COCC(=O)NC1CCCN(Cc2cc3nc(-c4cccc5[nH]ncc45)nc(N4CCOCC4)c3s2)C1 (racemic) |
| 94.1 | 3980 | 10 | 2510 | 179 (≈ 93.2 µg/mL) | – | 1000 | COCC(=O)N(C)C1CCN(Cc2cc3nc(-c4cccc5[nH]ccc45)nc(N4CCOCC4)c3s2)C1 (racemic) |
| – | 1580 | 25.1 | 631 | – | 4.3 | 1580 | CS(=O)(=O)NC1CCN(Cc2cc3nc(-c4cccc5[nH]ccc45)nc(N4CCOCC4)c3s2)C1 (racemic) |
| – | 3980 | 126 | 2510 | – | 4.1 | 2510 | CNC(=O)NC1CCCN(Cc2cc3nc(-c4cccc5[nH]ccc45)nc(N4CCOCC4)c3s2)C1 (racemic) |
| 95.2 | 3160 | 20 | 3160 | 85 (≈ 45.4 µg/mL) | 4.8 | 2000 | COCC(=O)N(C)C1CCCN(Cc2cc3nc(-c4cccc5[nH]ccc45)nc(N4CCOCC4)c3s2)C1 (racemic) |
